Laboratory results: patent US10046001B2, “Compositions and methods for reducing intraocular pressure” (UNIVERSITY OF MIAMI, priority 2013, dated 2018)

Experiments:
[1] = system: primary TM cells embedded in collagen gel; assay: collagen gel embedded expansion and/or contraction assay; format: cell-based, human; conditions: 10 pmole lipid, collagen column length at 24 hours
Description: About 10,000 primary TM cells were placed in a capillary tube with rat collagen without (control) or after treatment with 10 pmole of indicated lipid. The change in collagen column length was measured at the end of 24 hours. Mean and standard deviation from three independent experiments are presented. As shown by yellow/gray zones, the expansions were categorized into four zones (2, 3 and 4 are identified), 1=[…]; 2=1.0 to 1.4 mm; 3=>1.4 mm but <2.0 mm; 4=2.0 and >2.0 mm.
Properties of cell ensembles in embedded matrix and assembled layer of cells on filter membranes. Gel embedded primary TM cells in collagen matrix in capillary tubes were prepared following established protocols (Ilagan, R. et al. Biotechniques. 2010; 48: 153-5), and their ability within the first 24 hours for expansion or contraction of gels (control) or the cells which were subjected to treatment with lipids for 1 hour in serum free medium prior to gel embedding were determined. Lipids that modulate cell expansion in matrix embedded assay systems (FIG. 3) were found. […] The extent of expansion was divided into four zones 1, 2, 3, and 4 (FIG. 3). The higher the number, the greater is the expansion.
Collagen gel expansion and/or contraction assay: Hydro-gel solution was prepared using 10× MEM (cat #11430, Invitrogen), Sodium Bicarbonate (cat #55761 Sigma-Aldrich), L-Glutamine (Sigma-Aldrich), HEPES (cat #15630, Invitrogen). The following solution was aliquoted in separate tubes for each transfection type. Transfection complexes were prepared in individual tubes containing a mixture of the transfection agent (Lipofectamine 2000, Invitrogen) and desired DNA vectors in a ratio of 0.4 ug/uL, following the manufacturer's preparation guidelines. Trabecular meshwork cells were obtained from a confluent layer of trypsin-treated 25 cm^2 cell culture flask (cat #353109, Becton Dickinson, Franklin Lakes, N.J.) sedimented for 5 minutes at 800 RPM. Cell pellet was then re-suspended in serum free DMEM 1×, (Mediatech) media, thoroughly mixed and finally, equally aliquoted into each respective transfection-complex containing vessel. The reaction was allowed to occur for 45 minutes, after which it was terminated through addition of cell culture media and rat tail collagen (cat #354249, BD, San Jose, Calif.) to initiate gel polymerization. The suspension was gently mixed by aspiration and aspirated into 1 mL single use needle syringe and injected into a borosilicate glass capillary (O.D −1.0 mm, IN.D −0.75 mm) (cat #TW100-6, WPI) to approximately half of its volume. A digital picture snapshot was taken of all capillaries prepared against a blank background with a millimeter scale, repeated at 24 and 48 hours. The hydro-gel containing capillaries were incubated inside a moisture chamber to prevent dehydration in a cell line incubator at 37° C. and 5% CO2. Photographs obtained were analyzed using ImageJ (v.1.43u) measuring between chosen points on the opposite ends of the gel. Amassed length data was statistically analyzed using Microsoft Excel (XP).

DBA/2J mice = assay: IOP lowering after topical application in DBA/2J mice; format: in vivo, mouse; conditions: DBA/2J mice, topical 10 pmole in 5% DMSO, once daily
Description: The right eye was treated with vehicle alone and left eye treated with lipid. Control had both eyes treated with vehicle. A. In DBA/2J mice the indicated lipid in vehicle or control (vehicle only) were administered one daily at around 7.5 months of age in mice which were noted to have a IOP≥18 mm of Hg (20% increase from an average baseline of 15 mm of Hg was employed as treatment point). The average IOP recordings are shown for indicated lipids. B. A 10 picomole each of six PC (13:0/13:0; PE (18:0/18:0), Lyso-PS 18:0, PS 18:1, Sphinganine and C17S1P) were combined and applied as a topical dose once daily for up to 7 days on DBA/2J mouse eyes in 5% DMSO (vehicle). […] Transgenic myocillin mice [Tg-MYOC(Y437H)] subjected to a topical dose of indicated lipids as noted above (FIG. 5C). The IOP lowering compared to control was noted on day 4 and 6 as shown.
Intraocular pressure lowering in mouse models. The endogenous lipids lowered IOP in a DBA/2J mouse model of glaucoma (FIG. 5A). DBA/2J is the only known mouse animal where elevation of IOP occur spontaneously. Although this mouse also suffers from pigmentary dispersion, however, elevation of IOP appears not to correlate with […]. The lipids as indicated were applied as a topical dose (10 pmole in 5% DMSO as vehicle). The 5% DMSO only vehicle served as a control (FIG. 5A). […] A 10 picomole each of six PC (13:0/13:0; PE (18:0/18:0), Lyso-PS 18:0, PS 18:1, Sphinganine, and C17S1P) were combined and applied as a topical dose once daily for up to 7 days on DBA/2J mouse eyes in 5% DMSO (vehicle) (in other words, 10 picomoles of each PC was included). […] In addition to the DBA/2J model described here, these endogenous lipids lowered IOP in cochlin and connective tissue growth factor (CTGF) over-expression models. […] Thus the endogenous lipids assessed here lowered IOP in vastly different DBA/2J and MYOC(Y437H) mouse models as well as in cochlin and CTGF overexpression models covering a broad swath of four rodent glaucoma models that encompass induced as well as spontaneous IOP elevation.
Topical application of lipids and measurement of IOP: The lipids were topically applied as 1 μl drops with 10 pmole lipids. Pressure was measured with a tonolab (Colonial
Medical Supplies, N.H.) or with an assembled cannulation device, used in our laboratory. An initial assessment had utilized 10% DMSO as vehicle. However, all data reported here utilized 5% DMSO.

SMILES: CCCCCCCCCCCCCC[C@@H](O)[C@@H](N)COP(=O)(O)O [C17 Sphinganine-1-phosphate]
- gel expansion/contraction of cells in artificial embedment [1]: showed an effect
- lowering of IOP (DBA/2J mice): lowering of IOP

SMILES: CCCCCCCC/C=C\CCCCCCCC(=O)N[C@@H](CO)[C@H](O)CCCCCCCCCCCCCCC [Cer(d18:0/18:1(9Z))]
- gel expansion/contraction of cells in artificial embedment [1]: showed an effect
- lowering of IOP (DBA/2J mice): lowering of IOP

SMILES: CCCCCCCC/C=C\CCCCCCCCCCCCCCCC(=O)N[C@@H](CO)[C@H](O)/C=C/CCCCCCCCCCCCC [Cer(d18:1/26:1(17Z))]
- gel expansion/contraction of cells in artificial embedment [1]: showed an effect
- lowering of IOP (DBA/2J mice): lowering of IOP

SMILES: CCCC/C=C\CCCCCCCC(=O)O[C@H](COC(=O)CCCCCCCCCCC)COP(=O)([O-])OCC[N+](C)(C)C [PC(12:0/14:1(9Z))]
- gel expansion/contraction of cells in artificial embedment [1]: lack of any effect
- lowering of IOP (DBA/2J mice): not

SMILES: CCCCCCCCCCCCC(=O)OC[C@H](COP(=O)([O-])OCC[N+](C)(C)C)OC(=O)CCCCCCCCCCCC [PC(13:0/13:0), 1,2-ditridecanoyl-sn-glycero-3-phosphocholine, reference compound]
- gel expansion/contraction of cells in artificial embedment [1]: lack of any effect
- lowering of IOP (DBA/2J mice): not

SMILES: CCCCCCCCCCCCCCCCCC(=O)OC[C@H](COP(=O)(O)OCCN)OC(=O)CCCCCCCCCCCCCCCCC [PE(18:0/18:0)]
- gel expansion/contraction of cells in artificial embedment [1]: showed an effect
- lowering of IOP (DBA/2J mice): lowering of IOP

SMILES: CCCC/C=C\C/C=C\CCCCCCCC(=O)O[C@H](COC(=O)CCCCCCCCCCC)COP(=O)(O)OC1C(O)C(O)C(O)[C@@H](O)C1O (stereo partly drawn) [PI(12:0/17:2)9Z,12Z))]
- gel expansion/contraction of cells in artificial embedment [1]: showed an effect
- lowering of IOP (DBA/2J mice): lowering of IOP

SMILES: CCCCC/C=C\C/C=C\C/C=C\C/C=C\CCCC(=O)O[C@H](COC(=O)CCCCCCCCCCCCCCCCC)COP(=O)(O)OC1[C@H](O)[C@H](O)C(O)[C@H](O)[C@H]1O (stereo partly drawn) [PI(18:0/20:4)5Z,8Z,11Z,14Z))]
- gel expansion/contraction of cells in artificial embedment [1]: showed an effect
- lowering of IOP (DBA/2J mice): lowering of IOP

SMILES: CCCCCCCCCCCCCC(=O)OC[C@@H](O)COP(=O)(O)OC[C@H](N)C(=O)O [PS(14:0/0:0)]
- gel expansion/contraction of cells in artificial embedment [1]: showed an effect
- lowering of IOP (DBA/2J mice): lowering of IOP

SMILES: CCCCCCCCCCCCCCCCCC(=O)OC[C@@H](O)COP(=O)(O)OC[C@H](N)C(=O)O [PS(18:0/0:0)]
- gel expansion/contraction of cells in artificial embedment [1]: showed an effect
- lowering of IOP (DBA/2J mice): lowering of IOP

SMILES: CCCCCCCCCCC/C=C/[C@@H](O)[C@H](COP(=O)([O-])OCC[N+](C)(C)C)NC(=O)CCCCCCCCCCCCCCCCCCCCCCCC [SM(d16:1/25:0)]
- gel expansion/contraction of cells in artificial embedment [1]: showed an effect
- lowering of IOP (DBA/2J mice): lowering of IOP

SMILES: CCCCCCCCCCCCCCC[C@@H](O)[C@@H](N)CO [Sphinganine]
- gel expansion/contraction of cells in artificial embedment [1]: showed an effect
- lowering of IOP (DBA/2J mice): lowering of IOP
